Test results as given in patent US9586900B2, “Pyrrolone or pyrrolidinone melanin concentrating hormone receptor-1 antagonists” (BRISTOL-MYERS SQUIBB COMPANY, priority 2012, dated 2017).

Target: human melanin concentrating hormone receptor (MCHR1) (Homo sapiens (Human), UniProt Q99705, A5T/E4Q)
Assay: Radioligand binding assay for assessment of MCHR1 activity
Settings: membranes of HEK-293 cells expressing mutated (E4Q, A5T) hMCHR1, competition with [Phe13,[125I]Tyr19]-MCH
Protocol: Radioligand Binding Assay for Assessment of MCHR1 Activity
An in vitro binding assay was used to determine the compound Ki value or ability to antagonize binding of a peptide agonist to the human melanin concentrating hormone receptor (MCHR1). […] Binding experiments were carried out with 0.5-1.0 μg of membrane protein incubated in a total of 0.2 mL in 25 mM HEPES (pH 7.4) with 10 mM MgCl2, 2 mM EGTA, and 0.1% BSA (Binding Buffer) for 90 min. For competition binding assays, reactions were carried out in the presence of with 0.06-0.1 nM [Phe^13, [^125I]Tyr^19]-MCH and increasing concentrations of unlabeled test molecules. […] Filters were dried, 0.05 mL MicroScint 20 was added to each well and radioactivity was subsequently quantified by scintillation counting on a TOPCOUNT® microplate scintillation counter (Packard). Inhibitory constants were determined by nonlinear least squares analysis using a four parameter logistic equation.

Chain of human melanin concentrating hormone receptor (MCHR1) (Q99705 whole entry E4Q/A5T): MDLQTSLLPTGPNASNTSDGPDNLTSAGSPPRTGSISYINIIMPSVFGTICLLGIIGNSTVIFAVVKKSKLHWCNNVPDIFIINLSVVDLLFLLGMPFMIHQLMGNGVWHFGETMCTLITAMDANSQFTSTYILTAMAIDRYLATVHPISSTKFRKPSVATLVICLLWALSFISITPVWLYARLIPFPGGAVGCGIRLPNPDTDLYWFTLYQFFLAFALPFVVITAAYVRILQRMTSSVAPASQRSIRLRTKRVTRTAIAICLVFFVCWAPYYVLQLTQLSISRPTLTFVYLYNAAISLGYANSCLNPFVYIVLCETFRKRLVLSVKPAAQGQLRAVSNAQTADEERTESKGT

Row | SMILES | Ki (Table C) | other results
1 | Cc1cc(N2CCC(Oc3ccc(OC(F)(F)F)cc3)C2=O)ccc1OCC[S+](C)[O-] (stereo not shown) [Example 101, 1-(3-Methyl-4-(2-(methylsulfinyl)ethoxy)phenyl)-3-(4-(trifluoromethoxy)phenoxy)pyrrolidin-2-one] | 77 nM | 
2 | Cc1cc(N2CCC(Oc3ccc(C4CC4)cc3)C2=O)ccc1OCCS(C)(=O)=O (stereo not shown) [Example 114] | 7 nM | 
3 | Cc1cc(N2CCC(Oc3ccc(-c4ccccc4F)cc3)C2=O)ccc1OCCS(C)(=O)=O (stereo not shown) [Example 107] | 5 nM | 
4 | Cc1cc(N2CCC(Oc3ccc(-c4ccncc4)cc3)C2=O)ccc1OCCS(C)(=O)=O (stereo not shown) [Example 113, 1-(3-Methyl-4-(2-(methylsulfonyl)ethoxy)phenyl)-3-(4-(pyridin-4-yl)phenoxy)pyrrolidin-2-one] | 55 nM | 
5 | Cc1cc(N2CC[C@@H](Oc3ccc(-c4ccccc4)cc3)C2=O)ccc1OCCS(C)(=O)=O [Example 105, (R)-3-(Biphenyl-4-yloxy)-1-(3-methyl-4-(2-(methylsulfonyl)ethoxy)phenyl)pyrrolidin-2-one] | 2 nM | 
6 | COc1cc(N2CC=C(Oc3ccc(C4CC4)cc3)C2=O)ccc1OCC(C)(C)O [Example 116, 3-(4-Cyclopropylphenoxy)-1-(4-(2-hydroxy-2-methylpropoxy)-3-methoxyphenyl)-1H-pyrrol-2(5H)-one] |  | Ki (Table D): 3 nM
7 | COc1cc(N2CC[C@H](Oc3ccc(C(F)(F)F)cc3)C2=O)ccc1OCC(C)(C)O [Example 10, (S)-1-(4-(2-Hydroxy-2-methylpropoxy)-3-methoxyphenyl)-3-(4-(trifluoromethyl)phenoxy)pyrrolidin-2-one] |  | Ki (Table A): 6000 nM
8 | COc1cc(N2CC[C@@H](Oc3ccc(C(F)(F)F)cc3)C2=O)ccc1OCC(C)(C)O [Example 9, (R)-1-(4-(2-Hydroxy-2-methylpropoxy)-3-methoxyphenyl)-3-(4-(trifluoromethyl)phenoxy)pyrrolidin-2-one] |  | Ki (Table A): 23 nM
9 | COc1cc(N2CC=C(Oc3ccc(C4CC4)cc3)C2=O)ccc1O [Example 120] |  | Ki (Table D): 10 nM
10 | Cc1cc(N2CC[C@H](Oc3ccc(-c4ccccc4)cc3)C2=O)ccc1OCCS(C)(=O)=O [Example 106, (S)-3-(Biphenyl-4-yloxy)-1-(3-methyl-4-(2-(methylsulfonyl)ethoxy)phenyl)pyrrolidin-2-one] | 636 nM | 
